# From ChEMBL document CHEMBL3102801, “Synthesis and antiproliferative activity of new derivatives containing the polycyclic system 5,7:7,13-dimethanopyrazolo[3,4-b]pyrazolo[3',4':2,3]azepino[4,5-f]azocine” (Eur J Med Chem, 2014)
# The source made the active and inactive calls. The calls are words filed in the database; no cut-off is given here.
# Assays:
# SNB-19 = assay: Growth inhibition of human SNB19 cells after 48 hrs by sulforhodamine B assay; assay type: functional; conditions: SNB-19, 48 h
# UACC-62 = assay: Growth inhibition of human UACC62 cells after 48 hrs by sulforhodamine B assay; assay type: functional; conditions: UACC-62, 48 h
# A549 = assay: Growth inhibition of human A549 cells after 48 hrs by sulforhodamine B assay; assay type: functional; conditions: A549, 48 h
# COLO 205 = assay: Growth inhibition of human COLO205 cells after 48 hrs by sulforhodamine B assay; assay type: functional; conditions: COLO 205, 48 h
# M14 = assay: Growth inhibition of human M14 cells after 48 hrs by sulforhodamine B assay; assay type: functional; conditions: M14, 48 h
# [1] = Growth inhibition of human NCI-ADR-RES cells after 48 hrs by sulforhodamine B assay; assay type: functional
# NCI-H522 = assay: Growth inhibition of human NCI-H522 cells after 48 hrs by sulforhodamine B assay; assay type: functional; conditions: NCI-H522, 48 h
# [2] = target: T1, Retinoblastoma-associated protein (Homo sapiens) (UniProt P06400); assay: Inhibition of pRb p110 phosphorylation in human HCT116 cells at 5 to 10 uM after 48 hrs by Western blotting relative to unphosphorylated p105; assay type: cell-based; conditions: HCT-116
# T1 sequence (whole entry): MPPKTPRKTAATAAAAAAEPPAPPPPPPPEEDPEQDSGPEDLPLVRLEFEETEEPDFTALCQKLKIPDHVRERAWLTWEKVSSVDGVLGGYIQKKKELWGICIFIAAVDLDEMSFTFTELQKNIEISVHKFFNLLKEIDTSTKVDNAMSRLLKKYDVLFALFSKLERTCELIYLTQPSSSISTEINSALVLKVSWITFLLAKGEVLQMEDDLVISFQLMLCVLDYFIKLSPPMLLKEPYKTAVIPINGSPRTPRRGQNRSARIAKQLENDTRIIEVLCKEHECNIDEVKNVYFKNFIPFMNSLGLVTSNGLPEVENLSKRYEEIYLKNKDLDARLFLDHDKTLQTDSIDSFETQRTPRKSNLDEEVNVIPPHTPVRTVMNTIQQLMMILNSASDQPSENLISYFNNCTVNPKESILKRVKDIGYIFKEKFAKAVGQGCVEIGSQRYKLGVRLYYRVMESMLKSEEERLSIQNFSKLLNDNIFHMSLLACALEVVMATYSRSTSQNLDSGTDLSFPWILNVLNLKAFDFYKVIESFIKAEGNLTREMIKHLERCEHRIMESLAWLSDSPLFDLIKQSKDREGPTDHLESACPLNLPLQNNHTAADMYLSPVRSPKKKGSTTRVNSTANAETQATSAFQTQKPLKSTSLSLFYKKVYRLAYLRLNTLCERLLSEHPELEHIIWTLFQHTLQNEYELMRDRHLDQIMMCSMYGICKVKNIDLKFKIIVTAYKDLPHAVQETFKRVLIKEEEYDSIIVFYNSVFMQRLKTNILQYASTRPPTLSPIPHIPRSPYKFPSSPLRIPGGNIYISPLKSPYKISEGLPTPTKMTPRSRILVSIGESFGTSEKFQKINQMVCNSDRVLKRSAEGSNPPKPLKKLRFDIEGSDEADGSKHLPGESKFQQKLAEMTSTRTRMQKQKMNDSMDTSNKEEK
# MDA-MB-231 [3] = assay: Cell cycle arrest in human MDA-MB-231 cells assessed as accumulation of G2-M phase at 5 uM after 48 hrs using propidium iodide staining by flow cytometric analysis (reference value: 27.5%); assay type: functional
# SW-620 = assay: Growth inhibition of human SW620 cells after 48 hrs by sulforhodamine B assay; assay type: functional; conditions: SW-620, 48 h
# BT-549 = assay: Growth inhibition of human BT549 cells after 48 hrs by sulforhodamine B assay; assay type: functional; conditions: BT-549, 48 h
# SF-268 = assay: Growth inhibition of human SF268 cells after 48 hrs by sulforhodamine B assay; assay type: functional; conditions: SF-268, 48 h
# SK-MEL-28 = assay: Growth inhibition of human SK-MEL-28 cells after 48 hrs by sulforhodamine B assay; assay type: functional; conditions: SK-MEL-28, 48 h
# HCT-116 = assay: Cell cycle arrest in human HCT116 cells assessed as accumulation of G0-G1 phase at 10 uM after 48 hrs using propidium iodide staining by flow cytometric analysis (reference value: 45.7%); assay type: functional
# MDA-MB-231 [4] = assay: Cell cycle arrest in human MDA-MB-231 cells assessed as accumulation of sub-G0-G1 phase at 5 uM after 48 hrs using propidium iodide staining by flow cytometric analysis (reference value: 8.4%); assay type: functional
# [5] = Growth inhibition of human HCC2998 cells after 48 hrs by sulforhodamine B assay; assay type: functional; conditions: HCC 2998, 48 h
# [6] = target: T1, Retinoblastoma-associated protein (Homo sapiens); assay: Inhibition of pRb p110 phosphorylation in human MDA-MB-231 cells at 5 to 10 uM after 48 hrs by Western blotting relative to unphosphorylated p105; assay type: cell-based
# TK-10 = assay: Growth inhibition of human TK10 cells after 48 hrs by sulforhodamine B assay; assay type: functional; conditions: TK-10, 48 h
# [7] = Therapeutic index, ratio of IC50 for human HeDe cells to IC50 for human HCT116 cells; assay type: cell-based, HCT-116; conditions: HeDe cells versus HCT116 cells, read-out: TI
# [8] = Growth inhibition of human UACC257 cells after 48 hrs by sulforhodamine B assay; assay type: functional; conditions: UACC-257, 48 h
# CCRF-CEM = assay: Growth inhibition of human CCRF-CEM cells after 48 hrs by sulforhodamine B assay; assay type: functional
# PC-3 = assay: Growth inhibition of human PC3 cells after 48 hrs by sulforhodamine B assay; assay type: functional; conditions: PC-3, 48 h
# MDA-MB-231 [9] = assay: Cell cycle arrest in human MDA-MB-231 cells assessed as accumulation of G0-G1 phase at 10 uM after 48 hrs using propidium iodide staining by flow cytometric analysis (reference value: 42.2%); assay type: functional
# OVCAR-8 = assay: Growth inhibition of human OVCAR8 cells after 48 hrs by sulforhodamine B assay; assay type: functional; conditions: OVCAR-8, 48 h
# OVCAR-3 = assay: Growth inhibition of human OVCAR3 cells after 48 hrs by sulforhodamine B assay; assay type: functional; conditions: OVCAR-3, 48 h
# CAKI-1 = assay: Growth inhibition of human CAKI-1 cells after 48 hrs by sulforhodamine B assay; assay type: functional; conditions: CAKI-1, 48 h
# [10] = target: T1, Retinoblastoma-associated protein (Homo sapiens); assay: Inhibition of pRb p110 phosphorylation in human MDA-MB-231 cells after 48 hrs by Western blotting; assay type: cell-based
# HL-60(TB) = assay: Growth inhibition of human HL-60(TB) cells after 48 hrs by sulforhodamine B assay; assay type: functional; conditions: HL-60, 48 h
# HCT-15 = assay: Growth inhibition of human HCT15 cells after 48 hrs by sulforhodamine B assay; assay type: functional; conditions: HCT-15, 48 h
# SN12C = assay: Growth inhibition of human SN12C cells after 48 hrs by sulforhodamine B assay; assay type: functional
# T47D = assay: Growth inhibition of human T47D cells after 48 hrs by sulforhodamine B assay; assay type: functional
# [11] = Growth inhibition of human HOP92 cells after 48 hrs by sulforhodamine B assay; assay type: functional; conditions: HOP-92, 48 h
# MOLT-4 = assay: Growth inhibition of human MOLT4 cells after 48 hrs by sulforhodamine B assay; assay type: functional; conditions: MOLT-4, 48 h
smiles,measurement,setting,value
C=C1c2c(C)nn(-c3ccc(OC)cc3)c2N(C)C23CC1C1(C)c4c(C)nn(-c5ccc(OC)cc5)c4N(C)C(C)(CC12)C3 (stereo not drawn),GI50,SNB-19,4.34 µM
same,GI50,UACC-62,2860 nM
same,GI50,A549,2690 nM
same,GI50,COLO 205,2200 nM
same,GI50,M14,3.88 µM
same,GI50,[1],4.04 µM
same,GI50,NCI-H522,2770 nM
same,inhibition,[2],Active
same,Activity,MDA-MB-231 [3],18.6%
same,GI50,SW-620,3.63 µM
same,GI50,BT-549,3.1 µM
same,GI50,SF-268,3.63 µM
same,GI50,SK-MEL-28,5.86 µM
same,Activity,HCT-116,63.8%
same,Activity,MDA-MB-231 [4],11.5%
same,GI50,[5],4.07 µM
same,inhibition,[6],Active
same,GI50,TK-10,3.63 µM
same,selectivity ratio,[7],26.9
same,GI50,[8],2680 nM
same,GI50,CCRF-CEM,3.41 µM
same,GI50,PC-3,1750 nM
same,Activity,MDA-MB-231 [9],58.2%
same,GI50,OVCAR-8,3.4 µM
same,GI50,OVCAR-3,3.27 µM
same,GI50,CAKI-1,2670 nM
same,inhibition,[10],Dose-dependent effect
same,GI50,HL-60(TB),2540 nM
same,GI50,HCT-15,3.11 µM
same,GI50,SN12C,3.65 µM
same,GI50,T47D,1810 nM
same,GI50,[11],1180 nM
same,GI50,MOLT-4,2600 nM
